What was measured:
Experiment in all cases: biochemical
Assay type in all cases: biochemical
[1] = target: 363 human kinases (including Aurora A/B/C) (Homo sapiens, UniProt P08631); conditions: HCK; for remaining activity at 0.1 µM: 100 nM; for remaining activity at 0.1 µM / remaining activity at 0.5 µM: read-out: % Enzyme Activity (relative to DMSO controls)
Text: (§1) However, the Aurora A/B selectivity ratios derived from our in vitro and in vivo data can be compared to prioritize inhibitors.

[2] = target: T1, 363 human kinases (including Aurora A/B/C) (Homo sapiens, UniProt P54762); conditions: EPHB1, [ATP] 100 µM; for remaining activity at 0.1 µM: 100 nM; for remaining activity at 0.1 µM / remaining activity at 0.5 µM: read-out: % Enzyme Activity (relative to DMSO controls)
T1 sequence (P54762 18-984): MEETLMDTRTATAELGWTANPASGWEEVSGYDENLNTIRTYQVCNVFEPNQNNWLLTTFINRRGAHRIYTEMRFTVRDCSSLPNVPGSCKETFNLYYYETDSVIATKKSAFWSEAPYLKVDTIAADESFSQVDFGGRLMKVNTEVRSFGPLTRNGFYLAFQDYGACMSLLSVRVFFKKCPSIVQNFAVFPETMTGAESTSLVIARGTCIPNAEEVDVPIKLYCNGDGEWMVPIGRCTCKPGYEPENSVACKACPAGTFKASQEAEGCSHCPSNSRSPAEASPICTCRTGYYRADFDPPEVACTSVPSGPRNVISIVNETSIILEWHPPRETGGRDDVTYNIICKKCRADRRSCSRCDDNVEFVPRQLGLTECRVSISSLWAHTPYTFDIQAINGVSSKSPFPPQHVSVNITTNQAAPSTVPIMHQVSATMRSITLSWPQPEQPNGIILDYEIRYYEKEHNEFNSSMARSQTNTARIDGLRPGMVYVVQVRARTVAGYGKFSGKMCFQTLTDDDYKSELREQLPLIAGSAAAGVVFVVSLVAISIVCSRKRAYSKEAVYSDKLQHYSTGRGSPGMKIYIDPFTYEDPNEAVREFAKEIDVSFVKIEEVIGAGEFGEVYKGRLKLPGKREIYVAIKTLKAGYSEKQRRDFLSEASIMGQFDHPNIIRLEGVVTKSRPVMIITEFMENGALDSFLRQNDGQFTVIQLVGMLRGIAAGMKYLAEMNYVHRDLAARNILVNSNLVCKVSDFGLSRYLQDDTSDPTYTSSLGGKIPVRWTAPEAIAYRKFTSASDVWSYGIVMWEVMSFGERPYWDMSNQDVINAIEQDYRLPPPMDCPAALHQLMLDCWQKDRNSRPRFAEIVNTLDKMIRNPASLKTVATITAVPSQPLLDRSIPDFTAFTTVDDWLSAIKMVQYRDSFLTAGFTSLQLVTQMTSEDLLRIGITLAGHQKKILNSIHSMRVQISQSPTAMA
Text: as §1

[3] = target: 363 human kinases (including Aurora A/B/C) (Homo sapiens, UniProt P14616); conditions: IRR/INSRR; for remaining activity at 0.1 µM: 100 nM; for remaining activity at 0.1 µM / remaining activity at 0.5 µM: read-out: % Enzyme Activity (relative to DMSO controls)
Sequence of 363 human kinases (including Aurora A/B/C) (Homo sapiens, UniProt P14616) (P14616 27-1297): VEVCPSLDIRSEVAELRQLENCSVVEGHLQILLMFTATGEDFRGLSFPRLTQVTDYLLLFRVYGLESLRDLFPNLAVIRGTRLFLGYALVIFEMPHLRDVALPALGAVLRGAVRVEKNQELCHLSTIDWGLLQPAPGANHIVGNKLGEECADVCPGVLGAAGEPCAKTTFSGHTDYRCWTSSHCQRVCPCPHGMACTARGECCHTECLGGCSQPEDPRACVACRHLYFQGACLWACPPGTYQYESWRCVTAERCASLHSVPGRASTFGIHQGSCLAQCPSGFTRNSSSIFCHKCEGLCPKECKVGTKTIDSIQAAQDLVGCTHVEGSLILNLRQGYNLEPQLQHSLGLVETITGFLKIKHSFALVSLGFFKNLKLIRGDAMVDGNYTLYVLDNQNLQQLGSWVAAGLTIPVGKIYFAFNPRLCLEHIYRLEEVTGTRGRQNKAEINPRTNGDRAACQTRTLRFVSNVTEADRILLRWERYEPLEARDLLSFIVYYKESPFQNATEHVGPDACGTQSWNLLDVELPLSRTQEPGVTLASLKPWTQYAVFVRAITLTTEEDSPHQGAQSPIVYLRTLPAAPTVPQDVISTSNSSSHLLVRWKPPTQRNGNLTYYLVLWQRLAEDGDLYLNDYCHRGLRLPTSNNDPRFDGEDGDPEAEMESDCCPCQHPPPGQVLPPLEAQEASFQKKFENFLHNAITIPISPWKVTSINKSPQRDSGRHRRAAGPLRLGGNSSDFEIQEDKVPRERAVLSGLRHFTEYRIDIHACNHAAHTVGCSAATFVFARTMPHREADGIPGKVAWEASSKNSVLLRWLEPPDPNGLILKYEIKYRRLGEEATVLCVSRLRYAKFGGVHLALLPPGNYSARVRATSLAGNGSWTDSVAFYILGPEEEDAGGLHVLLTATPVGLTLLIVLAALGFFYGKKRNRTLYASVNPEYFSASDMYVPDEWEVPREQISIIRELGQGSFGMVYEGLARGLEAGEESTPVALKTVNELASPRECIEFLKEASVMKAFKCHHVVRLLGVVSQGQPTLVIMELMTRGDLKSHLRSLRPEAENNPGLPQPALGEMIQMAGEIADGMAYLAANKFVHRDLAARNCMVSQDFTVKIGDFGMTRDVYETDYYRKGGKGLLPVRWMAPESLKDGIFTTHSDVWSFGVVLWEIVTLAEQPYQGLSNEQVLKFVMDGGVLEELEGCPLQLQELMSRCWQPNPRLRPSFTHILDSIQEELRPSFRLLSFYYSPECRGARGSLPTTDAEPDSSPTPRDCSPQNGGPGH
Text: as §1

[4] = target: 363 human kinases (including Aurora A/B/C) (Homo sapiens, UniProt Q9HC98); conditions: NEK6; for remaining activity at 0.1 µM: 100 nM; for remaining activity at 0.1 µM / remaining activity at 0.5 µM: read-out: % Enzyme Activity (relative to DMSO controls)
Sequence of 363 human kinases (including Aurora A/B/C) (Homo sapiens, UniProt Q9HC98) (Q9HC98 whole entry): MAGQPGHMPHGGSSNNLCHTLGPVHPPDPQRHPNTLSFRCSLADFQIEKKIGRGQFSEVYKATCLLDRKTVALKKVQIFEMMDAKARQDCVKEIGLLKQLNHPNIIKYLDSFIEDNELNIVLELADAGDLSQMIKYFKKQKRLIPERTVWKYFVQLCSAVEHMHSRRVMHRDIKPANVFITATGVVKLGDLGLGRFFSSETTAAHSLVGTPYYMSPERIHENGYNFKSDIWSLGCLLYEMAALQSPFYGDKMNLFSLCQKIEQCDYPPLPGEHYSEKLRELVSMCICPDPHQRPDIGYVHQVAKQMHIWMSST
Text: as §1

[5] = target: 363 human kinases (including Aurora A/B/C) (Homo sapiens, UniProt P07332); conditions: FES/FPS, [ATP] 50 µM; for remaining activity at 0.1 µM: 100 nM; for remaining activity at 0.1 µM / remaining activity at 0.5 µM: read-out: % Enzyme Activity (relative to DMSO controls)
Sequence of 363 human kinases (including Aurora A/B/C) (Homo sapiens, UniProt P07332) (P07332 whole entry): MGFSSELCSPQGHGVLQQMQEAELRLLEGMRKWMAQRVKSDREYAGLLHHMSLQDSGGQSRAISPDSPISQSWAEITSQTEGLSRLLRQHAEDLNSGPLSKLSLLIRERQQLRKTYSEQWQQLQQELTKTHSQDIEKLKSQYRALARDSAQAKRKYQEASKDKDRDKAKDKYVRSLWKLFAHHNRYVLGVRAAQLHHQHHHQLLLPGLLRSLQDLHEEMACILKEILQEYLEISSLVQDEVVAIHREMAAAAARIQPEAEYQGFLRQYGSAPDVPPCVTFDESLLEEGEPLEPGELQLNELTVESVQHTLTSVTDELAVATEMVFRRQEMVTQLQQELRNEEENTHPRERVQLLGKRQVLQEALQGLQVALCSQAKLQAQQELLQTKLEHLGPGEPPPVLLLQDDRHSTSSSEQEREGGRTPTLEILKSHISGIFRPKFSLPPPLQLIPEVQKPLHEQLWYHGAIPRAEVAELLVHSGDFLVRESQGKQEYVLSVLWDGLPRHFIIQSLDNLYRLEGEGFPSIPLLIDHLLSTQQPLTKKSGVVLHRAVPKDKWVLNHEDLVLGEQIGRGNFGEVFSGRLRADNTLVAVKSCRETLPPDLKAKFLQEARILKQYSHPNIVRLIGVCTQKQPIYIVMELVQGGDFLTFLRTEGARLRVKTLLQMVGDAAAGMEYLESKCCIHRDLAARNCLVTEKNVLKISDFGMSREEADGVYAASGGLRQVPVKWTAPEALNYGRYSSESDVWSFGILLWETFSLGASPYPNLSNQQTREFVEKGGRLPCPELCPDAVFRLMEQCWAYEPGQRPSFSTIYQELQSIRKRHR
Text: as §1

[6] = target: T2, 363 human kinases (including Aurora A/B/C) (Homo sapiens, UniProt O60285); conditions: ARK5/NUAK1, [ATP] 30 µM; for remaining activity at 0.1 µM: 100 nM; for remaining activity at 0.1 µM / remaining activity at 0.5 µM: read-out: % Enzyme Activity (relative to DMSO controls)
T2 sequence (O60285 1-661): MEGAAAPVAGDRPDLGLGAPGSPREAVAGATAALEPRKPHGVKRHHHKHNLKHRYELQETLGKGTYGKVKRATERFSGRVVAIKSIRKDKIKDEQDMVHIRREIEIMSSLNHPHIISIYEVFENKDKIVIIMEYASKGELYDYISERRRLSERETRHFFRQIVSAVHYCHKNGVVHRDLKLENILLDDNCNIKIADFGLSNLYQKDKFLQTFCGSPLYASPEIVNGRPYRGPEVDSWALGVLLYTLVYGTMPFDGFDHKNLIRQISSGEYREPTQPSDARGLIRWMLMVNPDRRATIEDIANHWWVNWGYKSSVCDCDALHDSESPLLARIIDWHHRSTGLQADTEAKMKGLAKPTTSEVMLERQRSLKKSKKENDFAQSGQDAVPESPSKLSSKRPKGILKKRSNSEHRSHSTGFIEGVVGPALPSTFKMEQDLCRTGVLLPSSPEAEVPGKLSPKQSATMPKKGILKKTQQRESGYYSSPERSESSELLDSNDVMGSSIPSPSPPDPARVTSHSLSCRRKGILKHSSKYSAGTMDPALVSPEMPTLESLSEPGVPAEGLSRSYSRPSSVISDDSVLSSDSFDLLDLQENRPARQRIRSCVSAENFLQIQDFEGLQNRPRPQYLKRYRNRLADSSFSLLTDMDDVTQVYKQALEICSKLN
Text: as §1

[7] = target: 363 human kinases (including Aurora A/B/C) (Homo sapiens, UniProt O96013); conditions: PAK4; for remaining activity at 0.1 µM: 100 nM; for remaining activity at 0.1 µM / remaining activity at 0.5 µM: read-out: % Enzyme Activity (relative to DMSO controls)
Sequence of 363 human kinases (including Aurora A/B/C) (Homo sapiens, UniProt O96013) (O96013 whole entry): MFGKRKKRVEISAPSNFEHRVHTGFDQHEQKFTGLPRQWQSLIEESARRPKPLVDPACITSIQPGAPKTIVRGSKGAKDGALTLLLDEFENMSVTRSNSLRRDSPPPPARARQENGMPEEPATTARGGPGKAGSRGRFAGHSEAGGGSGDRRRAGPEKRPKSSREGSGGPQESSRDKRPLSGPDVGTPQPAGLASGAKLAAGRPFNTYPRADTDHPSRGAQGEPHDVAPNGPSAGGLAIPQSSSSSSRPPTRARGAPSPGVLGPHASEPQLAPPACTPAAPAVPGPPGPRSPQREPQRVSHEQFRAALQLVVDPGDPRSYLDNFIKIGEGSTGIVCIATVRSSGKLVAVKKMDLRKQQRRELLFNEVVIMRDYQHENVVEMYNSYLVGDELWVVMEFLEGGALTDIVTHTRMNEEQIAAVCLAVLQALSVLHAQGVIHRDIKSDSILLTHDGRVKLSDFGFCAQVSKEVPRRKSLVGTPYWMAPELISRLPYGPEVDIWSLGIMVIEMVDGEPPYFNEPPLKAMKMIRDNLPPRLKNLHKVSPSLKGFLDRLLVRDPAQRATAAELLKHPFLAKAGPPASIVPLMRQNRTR
Text: as §1

[8] = target: T3, 363 human kinases (including Aurora A/B/C) (Homo sapiens, UniProt Q13237); conditions: PKG2/PRKG2; for remaining activity at 0.1 µM: 100 nM; for remaining activity at 0.1 µM / remaining activity at 0.5 µM: read-out: % Enzyme Activity (relative to DMSO controls)
T3 sequence (Q13237 1-762): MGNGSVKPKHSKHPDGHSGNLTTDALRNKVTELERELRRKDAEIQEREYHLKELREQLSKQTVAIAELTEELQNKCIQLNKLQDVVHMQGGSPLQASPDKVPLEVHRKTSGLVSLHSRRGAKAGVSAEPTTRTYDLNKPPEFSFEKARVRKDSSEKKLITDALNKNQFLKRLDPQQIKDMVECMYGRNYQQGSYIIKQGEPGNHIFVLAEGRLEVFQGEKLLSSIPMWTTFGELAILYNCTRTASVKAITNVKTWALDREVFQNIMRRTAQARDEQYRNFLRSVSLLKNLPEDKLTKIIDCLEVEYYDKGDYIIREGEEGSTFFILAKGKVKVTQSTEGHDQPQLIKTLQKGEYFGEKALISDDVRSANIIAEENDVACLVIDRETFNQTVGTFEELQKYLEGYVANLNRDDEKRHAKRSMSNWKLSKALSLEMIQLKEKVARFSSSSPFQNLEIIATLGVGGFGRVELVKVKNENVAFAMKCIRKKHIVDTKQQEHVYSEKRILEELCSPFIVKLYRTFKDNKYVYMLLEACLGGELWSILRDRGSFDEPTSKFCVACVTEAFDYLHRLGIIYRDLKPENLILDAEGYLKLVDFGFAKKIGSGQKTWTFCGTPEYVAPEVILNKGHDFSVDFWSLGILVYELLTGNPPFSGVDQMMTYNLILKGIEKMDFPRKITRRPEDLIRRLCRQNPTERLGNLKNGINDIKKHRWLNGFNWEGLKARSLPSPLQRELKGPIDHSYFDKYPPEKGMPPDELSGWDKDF
Text: as §1

Sequence of 363 human kinases (including Aurora A/B/C) (Homo sapiens, UniProt P08631) (P08631 whole entry): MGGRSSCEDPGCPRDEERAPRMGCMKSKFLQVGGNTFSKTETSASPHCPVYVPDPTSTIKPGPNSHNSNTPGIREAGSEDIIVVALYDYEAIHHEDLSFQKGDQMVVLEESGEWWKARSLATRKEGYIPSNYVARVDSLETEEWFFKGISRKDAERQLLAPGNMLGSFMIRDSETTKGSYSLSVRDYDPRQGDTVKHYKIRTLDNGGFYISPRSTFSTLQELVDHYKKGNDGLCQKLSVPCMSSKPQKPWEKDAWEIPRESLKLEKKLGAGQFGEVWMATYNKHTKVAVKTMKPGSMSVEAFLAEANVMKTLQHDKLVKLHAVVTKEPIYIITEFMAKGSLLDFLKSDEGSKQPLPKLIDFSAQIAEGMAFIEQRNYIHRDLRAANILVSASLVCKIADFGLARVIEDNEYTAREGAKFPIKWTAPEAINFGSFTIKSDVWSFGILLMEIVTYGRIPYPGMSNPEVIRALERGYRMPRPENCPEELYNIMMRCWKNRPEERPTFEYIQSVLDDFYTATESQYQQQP

Row | Compound | remaining activity at 0.1 µM [1] | remaining activity at 0.5 µM ([1]; 500 nM) | remaining activity at 0.1 µM [2] | remaining activity at 0.5 µM ([2]; 500 nM) | remaining activity at 0.1 µM [3] | remaining activity at 0.5 µM ([3]; 500 nM) | remaining activity at 0.1 µM [4] | remaining activity at 0.5 µM ([4]; 500 nM) | remaining activity at 0.1 µM [5] | remaining activity at 0.5 µM ([5]; 500 nM) | remaining activity at 0.1 µM [6] | remaining activity at 0.5 µM ([6]; 500 nM) | remaining activity at 0.1 µM [7] | remaining activity at 0.5 µM ([7]; 500 nM) | remaining activity at 0.1 µM [8] | remaining activity at 0.5 µM ([8]; 500 nM) | further results
1 | O=C(O)[C@]1(Cc2cccc(Nc3nccs3)n2)CC[C@@H](Oc2cccc(Cl)c2F)CC1 [MK-5108] | 46.1% | 20.2% | 42.4% | 13.9% | 81.7% | 46.3% | 87% | 115% | 96% | 73.7% | 79.6% | 42.7% | 92.8% | 89.8% | 106% | 97.3% | –
2 | O=C(c1cccc(Cl)c1F)N1CCN(Cc2cccc(Nc3nccs3)n2)CC1 [MK-8745] | – | 53.9% | – | 65.9% | – | 76.4% | – | 102% | – | 86% | – | 76.7% | – | 95.9% | – | 95.3% | % Enzyme Activity (relative to DMSO controls) ([1]; 500 nM): 52.42%; % Enzyme Activity (relative to DMSO controls) ([2]; 500 nM): 65.66%; % Enzyme Activity (relative to DMSO controls) ([3]; 500 nM): 75.20%; % Enzyme Activity (relative to DMSO controls) ([4]; 500 nM): 99.72%; % Enzyme Activity (relative to DMSO controls) ([5]; 500 nM): 85.63%; % Enzyme Activity (relative to DMSO controls) ([6]; 500 nM): 73.30%; % Enzyme Activity (relative to DMSO controls) ([7]; 500 nM): 92.31%; % Enzyme Activity (relative to DMSO controls) ([8]; 500 nM): 95.25%
3 | CCn1cc(-c2ccnc3[nH]c(-c4cccc(CN(C)C)c4)cc23)c(-c2ccc(NC(=O)N(C)C)cc2)n1 [GSK1070916] | 102% | – | 89.2% | – | 99.5% | – | 109% | – | 90% | – | 92.5% | – | 106% | – | 97.2% | – | –
